The text below walks through data of patent EP2208725A1, “Novel specific inhibitors of ubiquitin specific protease 7, the pharmaceutical compositions thereof and their therapeutic applications” (Hybrigenics S.A., priority 2009, dated 2010).

The target of one test is T1, UCH-L1 (Homo sapiens, UniProt P09936).
T1 sequence (P09936 1-223): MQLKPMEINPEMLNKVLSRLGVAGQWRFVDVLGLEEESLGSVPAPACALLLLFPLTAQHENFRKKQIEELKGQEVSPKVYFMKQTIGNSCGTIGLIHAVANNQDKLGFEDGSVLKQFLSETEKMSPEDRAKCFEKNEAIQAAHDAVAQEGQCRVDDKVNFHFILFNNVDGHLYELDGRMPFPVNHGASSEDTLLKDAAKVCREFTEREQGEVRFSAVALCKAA
The test is described as follows: UCH-L1 activity assay (Ub-AMC). The format is biochemical. The settings on record: 400 nM Ub-AMC, 2.5 nM enzyme; compounds tested from 200 µM to 91 nM; unit inferred; read-out: Inhibition of cysteine protease activities: Uch-L1. The procedure:
UCH-L1 was diluted in USP buffer (50 mM Tris HCl; 0.5 mM EDTA; 5 mM DTT; 0.01% Triton X-100; Bovine Serum Albumin 0.05 mg.ml^-1 pH7.6). Compounds stocks (100 mM) were stored at -20°C in DMSO. Compounds were tested at different concentrations: from 200 µM to 91 nM. Reactions were performed as duplicates in Black LJL 96 well plates (HE microplates; Molecular Devices; 20 µl final reaction volume). The substrate concentration for UCH-L1 was 400 nM Ub-AMC (Boston Biochem). The concentration of the enzyme (UCH-L1) in specificity assays was 2.5 nM. The concentrations were determined in order to perform specificity assays under initial velocities at fixed substrate concentration. Compounds were pre-incubated with enzymes for 30 minutes at 25°C. Reactions were initiated by addition of substrate to the plates containing the enzymes (+/- compounds) diluted in assay buffer. Reactions were incubated for 60 minutes at 37°C. Reactions were stopped by adding acetic acid (100 mM final). Readings were performed on a Pherastar Fluorescent Reader (BMG). λ […]. Data (mean values +/- standard deviation) were analyzed as % of control (no compound) and plotted as percentage versus the Log of the compound concentration using GraphPad (Prism). Data were fitted to a sigmoidal model (variable slope).

In a further test the target is T2, USP5 (Homo sapiens, UniProt P45974).
T2 sequence (P45974 1-858): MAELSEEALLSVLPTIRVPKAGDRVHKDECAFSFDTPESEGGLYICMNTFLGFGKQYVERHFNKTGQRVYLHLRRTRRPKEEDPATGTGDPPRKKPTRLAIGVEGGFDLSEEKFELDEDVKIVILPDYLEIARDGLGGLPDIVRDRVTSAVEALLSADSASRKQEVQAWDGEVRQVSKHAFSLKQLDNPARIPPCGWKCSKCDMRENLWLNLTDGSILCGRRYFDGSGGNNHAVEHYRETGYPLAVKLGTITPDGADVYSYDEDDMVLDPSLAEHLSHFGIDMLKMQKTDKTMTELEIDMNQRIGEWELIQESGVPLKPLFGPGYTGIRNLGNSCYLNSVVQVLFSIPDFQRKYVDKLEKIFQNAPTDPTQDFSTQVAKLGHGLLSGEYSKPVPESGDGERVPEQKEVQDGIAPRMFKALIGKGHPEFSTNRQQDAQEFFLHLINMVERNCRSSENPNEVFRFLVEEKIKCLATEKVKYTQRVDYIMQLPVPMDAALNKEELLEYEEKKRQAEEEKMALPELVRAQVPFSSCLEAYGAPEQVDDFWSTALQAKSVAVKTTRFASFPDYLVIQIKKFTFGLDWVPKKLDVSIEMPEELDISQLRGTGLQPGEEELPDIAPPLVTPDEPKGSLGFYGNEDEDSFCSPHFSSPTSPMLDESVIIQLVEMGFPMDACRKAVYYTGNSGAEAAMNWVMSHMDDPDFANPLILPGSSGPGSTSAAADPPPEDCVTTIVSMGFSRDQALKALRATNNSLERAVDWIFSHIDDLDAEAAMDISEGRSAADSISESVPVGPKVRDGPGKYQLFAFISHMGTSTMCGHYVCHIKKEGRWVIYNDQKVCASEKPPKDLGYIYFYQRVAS
The test is described as follows: USP5 activity assay (Ub-AMC). The format is biochemical. Particulars: 300 nM Ub-AMC, 300 pM enzyme; compounds tested from 200 µM to 91 nM; unit inferred; read-out: Inhibition of cysteine protease activities: USP 5. The procedure: USP5 was diluted in USP buffer (50 mM Tris HCl; 0.5 mM EDTA; 5 mM DTT; 0.01% Triton X-100; Bovine Serum Albumin 0.05 mg.ml^-1 pH 7.6). Compounds stocks (100 mM) were stored at -20°C in DMSO. Compounds were tested at different concentrations: from 200 µM to 91 nM. Reactions were performed as duplicates in Black LJL 96 well plates (HE microplates; Molecular Devices; 20 µl final reaction volume). The substrate concentration for USP5 was 300 nM Ub-AMC (Boston Biochem). The concentrations of the enzyme (USP5) in specificity assays was 300 pM. The concentrations were determined in order to perform specificity assays under initial velocities at fixed substrate concentration. Compounds were pre-incubated with enzymes for 30 minutes at 25°C. Reactions were initiated by addition of substrate to the plates containing the enzymes (+/- compounds) diluted in assay buffer. Reactions were incubated for 60 minutes at 37°C. Reactions were stopped by adding acetic acid (100 mM final). Readings were performed on a Pherastar Fluorescent Reader (BMG). λ Emission 380 nm; λ Excitation = 460 nm. Data (mean values +/- standard deviation) were analyzed as % of control (no compound) and plotted as percentage versus the Log of the compound concentration using GraphPad (Prism). Data were fitted to a sigmoidal model (variable slope).

`CC(=O)C1=C(O)C(=O)N(CCc2ccc(Cl)cc2)C1c1ccc(Br)cc1` (centres unmarked) [Example 25, 4-acetyl-5-(4-bromo-phenyl)-1-[2-(4-chloro-phenyl)-ethyl]-3-hydroxy-1,5-dihydro-pyrrol-2-one]: the IC50 at UCH-L1 and at USP5 was over 200 µM each time.
Turning to `CC(=O)C1=C(O)C(=O)N(CCc2ccc(Br)cc2)C1c1ccc(Br)cc1` (centres unmarked) [Example 26, 4-acetyl-5-(4-bromo-phenyl)-1-[2-(4-bromo-phenyl)-ethyl]-3-hydroxy-1,5-dihydro-pyrrol-2-one], the IC50 on UCH-L1 and on USP5 was over 200 µM throughout.
Turning to `CC(=O)C1=C(O)C(=O)N(CCc2ccc(Cl)c(Cl)c2)C1c1ccc(Br)cc1` (centres unmarked) [Example 28, 4-acetyl-5-(4-bromo-phenyl)-1-[2-(3,4-dichloro-phenyl)-ethyl]-3-hydroxy-1,5-dihydro-pyrrol-2-one], the IC50 on UCH-L1 and on USP5 was over 200 µM throughout.
As to `COc1cccc(CCN2C(=O)C(O)=C(C(C)=O)C2c2ccc(Br)cc2)c1` (centres unmarked) [Example 30, 4-acetyl-5-(4-bromo-phenyl)-3-hydroxy-1-[2-(3-methoxyphenyl)-ethyl]-1,5-dihydro-pyrrol-2-one], the IC50 at UCH-L1 and at USP5 was over 200 µM in each case.
On to `COc1ccc(CCN2C(=O)C(O)=C(C(C)=O)C2c2ccc(Br)cc2)cc1` (centres unmarked) [Example 32, 4-acetyl-5-(4-bromo-phenyl)-3-hydroxy-1-[2-(4-methoxyphenyl)-ethyl]-1,5-dihydro-pyrrol-2-one], for which the IC50 at UCH-L1 and at USP5 was over 200 µM throughout.
With `CC(=O)C1=C(O)C(=O)N(CCc2ccc(F)cc2)C1c1ccc(Br)cc1` (centres unmarked) [Example 33, 4-acetyl-5-(4-bromo-phenyl)-3-hydroxy-1-[2-(4-fluorophenyl)-ethyl]-1,5-dihydro-pyrrol-2-one], the IC50 on UCH-L1 and on USP5 was over 200 µM each time.
As for `CCOc1ccc(CCN2C(=O)C(O)=C(C(C)=O)C2c2ccc(Br)cc2)cc1` (centres unmarked) [Example 34, 4-acetyl-5-(4-bromo-phenyl)-3-hydroxy-1-[2-(4-ethoxy-phenyl)-ethyl]-1,5-dihydro-pyrrol-2-one], the IC50 at UCH-L1 and on USP5 was over 200 µM each time.
As for `CC(=O)C1=C(O)C(=O)N(CCc2ccccc2)C1c1ccc2c(c1)OCO2` (centres unmarked) [Example 37, 4-acetyl-5-benzo[1,3]dioxol-5-yl-3-hydroxy-1-phenethyl-1,5-dihydro-pyrrol-2-one], the IC50 at UCH-L1 and at USP5 was over 200 µM in each case.
`CC(=O)C1=C(O)C(=O)N(CCc2ccccc2)C1c1ccc(Br)c(Br)c1` (centres unmarked) [Example 41, 4-acetyl-5-(3,4-dibromo-phenyl)-3-hydroxy-1-phenethyl-1,5-dihydro-pyrrol-2-one]: the IC50 at UCH-L1 and on USP5 was over 200 µM each time.
For `CC(=O)C1=C(O)C(=O)N(CCc2ccccc2)C1c1cccnc1Cl` (centres unmarked) [Example 42, 4-acetyl-5-(2-chloro-pyridin-3-yl)-3-hydroxy-1-phenethyl-1,5-dihydro-pyrrol-2-one], the IC50 at UCH-L1 and on USP5 was over 200 µM each time.
With `CC(=O)C1=C(O)C(=O)N(CCc2ccc(Br)cc2)C1c1ccc(Cl)cc1` (centres unmarked) [Example 45, 4-Acetyl-5-(4-chlorophenyl)-1-[2-(4-bromophenyl)-ethyl]-3-hydroxy-1,5-dihydro-pyrrol-2-one], the IC50 at UCH-L1 and on USP5 was over 200 µM throughout.
As for `CC(=O)C1=C(O)C(=O)N(CCc2ccc(Cl)cc2)C1c1ccc(Cl)cc1` (centres unmarked) [Example 46, 4-Acetyl-5-(4-chlorophenyl)-1-[2-(4-chlorophenyl)-ethyl]-3-hydroxy-1,5-dihydro-pyrrol-2-one], the IC50 on UCH-L1 and at USP5 was over 200 µM each time.
For `CC(=O)C1=C(O)C(=O)N(CCc2ccc(Cl)cc2Cl)C1c1ccc(Br)cc1` (centres unmarked) [Example 47, 4-Acetyl-5-(4-bromophenyl)-1-[2-(2,4-dichlorophenyl)-ethyl]-3-hydroxy-1,5-dihydro-pyrrol-2-one], the IC50 at UCH-L1 and at USP5 was over 200 µM in each case.
